Like-named read-outs stand apart in the source and are kept apart here.
Assays:
P. vivax hypnozoites = test: P. vivax liver stage assay in primary human hepatocytes, hypnozoites; type: cell-based; details: Plasmodium vivax, Hepatocyte; for IC50: 8 dpi, primary human hepatocytes, read-out: liver stage Pv hypnozoites IC50
Description: Finally, the NMT-binding compounds were evaluated against non-developing P. vivax hypnozoites. […] .

HsNMT1 = target: T1, HsNMT1 (Homo sapiens, UniProt P30419); test: NMT activity assay (CPM detection of free CoA), human NMT; type: biochemical; details: read-out: HsNMT IC50 (nM)*
T1 construct: made in house
T1 sequence (P30419 1-496): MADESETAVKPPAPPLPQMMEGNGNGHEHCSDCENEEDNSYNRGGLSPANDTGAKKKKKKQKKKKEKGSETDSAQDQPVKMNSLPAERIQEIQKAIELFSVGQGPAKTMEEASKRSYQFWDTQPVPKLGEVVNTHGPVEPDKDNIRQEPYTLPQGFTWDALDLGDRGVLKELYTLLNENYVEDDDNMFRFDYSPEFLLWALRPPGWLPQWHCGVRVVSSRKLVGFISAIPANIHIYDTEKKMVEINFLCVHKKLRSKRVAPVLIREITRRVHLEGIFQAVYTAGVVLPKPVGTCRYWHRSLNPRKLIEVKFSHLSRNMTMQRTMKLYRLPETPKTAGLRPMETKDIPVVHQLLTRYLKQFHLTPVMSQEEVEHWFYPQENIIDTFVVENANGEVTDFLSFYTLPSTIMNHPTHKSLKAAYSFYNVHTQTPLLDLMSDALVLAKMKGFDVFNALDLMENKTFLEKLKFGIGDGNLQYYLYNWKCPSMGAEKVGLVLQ

[1] = system: P. falciparum NF54 ring-stage parasites; test: P. falciparum blood stage assay (SYBR Green parasite DNA); type: cell-based; details: Plasmodium falciparum, NF54, 72 h; read-out: blood stage Pf NF54 IC50
Description: To assess whether any of the NMTis developed here could qualify as TCP-1 candidates, the effect of each compound on blood-stage P. falciparum parasites was assessed, as there is currently no well-established in vitro platform for screening P. vivax blood-stage parasites. Synchronized P. falciparum NF54 ring stage parasites were treated for 72 h with each compound at various concentrations, ranging from 0.625 μM to 10 μM, and parasite DNA replication was measured using a fluorescent DNA binding dye (SYBR Green).
Sorbitol-synchronized P. falciparum NF54 ring-stage parasites were cultured at a parasitemia of 0.5% and hematocrit of 1.5% in a 96-well microtiter plate. […] Direct lysis of the blood cells to release the parasite DNA was performed by adding 100 μL of LBS buffer containing SYBR green I DNA binding dye to each well. Plates were incubated at-20° C. overnight for complete lysis and fluorescence was measured at 485 nm (excitation) and 528 nm (emission). ICEstimator regression analysis (antimalarial-icestimator dot net) was used to obtain relative IC50 values for each compound.

PvNMT = target: T2, PvNMT (Plasmodium vivax, UniProt A5K1A2); test: biochemical; type: biochemical; details: for selectivity index (SI): ratio of IC50 values for HsNMT1 and PvNMT
T2 construct: Gly-Pro stays on the protein after cleavage) (N, cleaved yes); host or cells: E. coli Rosetta 2 (DE3) pRARE
T2 sequence (A5K1A2 entry or part of it): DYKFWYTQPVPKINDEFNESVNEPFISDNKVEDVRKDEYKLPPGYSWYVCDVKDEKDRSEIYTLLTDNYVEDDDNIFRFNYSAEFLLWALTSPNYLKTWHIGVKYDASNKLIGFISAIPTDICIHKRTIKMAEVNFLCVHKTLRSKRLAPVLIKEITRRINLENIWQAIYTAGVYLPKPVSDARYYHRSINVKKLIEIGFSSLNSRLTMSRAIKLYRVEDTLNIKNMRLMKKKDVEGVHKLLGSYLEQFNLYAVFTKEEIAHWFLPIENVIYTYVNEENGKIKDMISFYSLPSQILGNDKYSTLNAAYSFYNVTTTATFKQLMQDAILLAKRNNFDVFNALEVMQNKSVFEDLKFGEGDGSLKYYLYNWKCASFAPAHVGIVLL
Text: NMT activity was indirectly measured through the detection of free CoA by the thiol-reactive probe 7-diethylamino-3-(4′-maleimidylphenyl)-4-methylcoumarin (CPM).
This study aimed to identify NMT is with high selectivity for the P. vivax enzyme compared with human NMTs and high potency against the different stages of the P. vivax parasite. For this purpose, a structure-guided approach was applied using previously reported NMT inhibitors as scaffolds to develop a new generation of PvNMT-targeting compounds. The NMT activity of these inhibitors was first measured using biochemical assays through the detection of free CoA by the thiol-reactive probe 7-diethylamino-3-(4′-maleimidylphenyl)-4-methylcoumarin (CPM). Their antiparasitic activity were further evaluated by measuring blood-stage parasite load and inhibition of P. vivax liver-stage schizont and hypnozoite infection. […] Cytotoxicity was assessed in the human hepatoma HepG2 cell line. Synchronized P. falciparum NF54 ring-stage parasites were used for measuring blood-stage parasite load. […] In vitro experiments were repeated at least twice. A single concentration of each inhibitor was initially used to evaluate the inhibition of P. vivax liver stage schizont and hypnozoite infection, followed by the determination of the dose-response relationship.
To measure the activity of the purified PvNMT an assay was adapted from the literature. […] Working stock solutions were made fresh adding DMSO for final concentrations of either 1% or 5% DMSO. […] The plate was incubated for 30 min at room temperature. The enzymatic reaction was initiated by adding 50 μL of reaction substrate containing 10 µM myrCoA and PfARF, as well as 8 μM CPM. Fluorescent readings were taken on a Spectra M2 plate reader (Molecular Devices) with excitation at 385 nm and emission at 485 nm. Fluorescent intensity was measured continuously in one-minute intervals for 45 minutes. Background fluorescence and noise were determined by replacing each constituent of the reaction individually with assay buffer containing 1% DMSO and values were deducted from experimental samples. The enzymatic reactions were set up with varying pHs (6.0-8.5) of the assay buffer to determine optimal reaction conditions with minimal background and off target reactions. In lieu of compound, 10 μL of 10% DMSO/H2O was added to each well. Fluorescence signal was obtained continuously for 45 min. […] IC50 calculations were calculated using Prism (GraphPad Software, Inc).

[2] = system: P. vivax liver stage schizonts; test: P. vivax liver stage assay in primary human hepatocytes, schizonts; details: Plasmodium vivax, Hepatocyte, read-out: liver stage Pv schizonts IC50 (μM)
Description: P. vivax sporozoites were obtained from three independent patient isolates. Liver stage infections were cultured in primary human hepatocytes from a single donor lot using a 384-well microculture system as described previously. Cells were infected and treated with NMTis at 20 μM beginning day 5 post-infection until day 8 when the infection rates were quantified via fluorescent microscopy. […] Accordingly, dose-response curves of all the shortlisted NMTis on parasite isolates 3 and 4 were applied over concentrations up to 20 μM (FIGS. 4C and D).
Plasmodium vivax liver stage assays were performed as described previously. Briefly, 384-well plates were seeded with primary hepatocytes from a single donor lot at a density of 25,000 cells per well. The hepatocytes were then infected with 14,000 freshly hand-dissected sporozoites per well. Cells were exposed to the compounds at indicated concentrations from day 3 post-infection, then proceeded to feed cultures every day, replacing the compounds until day 8 post-infection. Cells were fixed with 4% PFA and stained with PvUIS4 antibodies to detect schizonts and hypnozoites forms by confocal microscopy. The images were processed and analyzed using IMARIS (Bitplane Inc.) image analysis software.

[3] = HepG2 cytotoxicity assay (live/dead staining); type: cell-based, human; details: human
Description: (§1) Therefore, the cytotoxicity of the compounds was assessed in the human hepatoma HepG2 cell line. The compounds with PvNMT to HsNMT selectivity index above 20 were shortlisted for further screening.

P. falciparum = details: background; read-out: EC50 in a P. falciparum growth assay; cited from earlier work
Plasmodium NMT = details: background, cited from earlier work
HepG2 cells = test: HepG2 cytotoxicity assay (live/dead staining); type: cell-based, human; details: positive control, 10-20 μM
Description: as §1

[4] = Table 1, mean values of two or more determinations
[5] = Table 1, enzyme selectivity calculated as HsNMT IC50/PvNMT IC50

Cc1n[nH]c(C)c1CCOc1cc(F)ccc1-c1ccnc(N2CCNCC2)c1 [Compound 12q, 1-(4-(2-(2-(3,5-dimetyl-1H-pyrazol-4-yl)ethoxy)-4-fluorophenyl)piridin-2-yl)piperazine]
IC50 (P. vivax hypnozoites): 4.4 µM
IC50 (HsNMT1; [4]): 1630 nM
IC50 [1]: 0.38 µM
SI** (PvNMT; [5]): 22
IC50 (PvNMT; [4]): 73 nM
IC50 [2]: 2.2 to 3.5 µM
IC50 at 48 h [3]: > 20 µM

Cc1nn(C)c(C)c1CCOc1cc(F)ccc1-c1cc(N2CCNCC2)ncn1 [Compound 16b, 4-(4-fluoro-2-(2-(1,3,5-trimethyl-1H-pyrazol-4-yl)ethoxy)phenyl)-6-(piperazin-1-yl)pyrimidine]
IC50 (HsNMT1; [4]): 27600 nM
SI** (PvNMT; [5]): 164.4
IC50 (PvNMT; [4]): 168 nM
selectivity index (SI) (PvNMT): 164

Cc1nn(C)c(C)c1CCOc1cccnc1-c1cccc(OCCN(C)C)c1 [Compound 26a, N,N-dimethyl-2-(3-(3-(2-(1,3,5-trimethyl-1H-pyrazol-4-yl)ethoxy)pyridin-2-yl)phenoxy)-ethan-1-amine]
IC50 (HsNMT1; Table 2): > 40000 nM
IC50 (PvNMT; Table 2): 266 nM
SI** (PvNMT; Table 2, HsNMT IC50/PvNMT IC50): 153.8

Cc1nn(C)c(C)c1CCOc1ccccc1-c1cccc(OCCN(C)C)c1 [Compound 26b, N,N-dimethyl-2-((2′-(2-(1,3,5-trimethyl-1H-pyrazol-4-yl)ethoxy)-[1,1′-biphenyl]-3-yl)oxy)-ethan-1-amine]
IC50 (HsNMT1; Table 2): 9850 nM
IC50 (PvNMT; Table 2): 83.2 nM
SI** (PvNMT; Table 2, HsNMT IC50/PvNMT IC50): 118.4

Cc1nn(C)c(C)c1CCOc1cc(F)ccc1-c1cccc(OCCN(C)C)c1 [Compound 26c, 2-((4′-fluoro-2′-(2-(1,3,5-trimethyl-1H-pyrazol-4-yl)ethoxy)-[1,1′-biphenyl]-3-yl)oxy)-N,N-dimethylethan-1-amine]
IC50 (HsNMT1; Table 2): 4790 nM
IC50 (PvNMT; Table 2): 29.4 nM
SI** (PvNMT; Table 2, HsNMT IC50/PvNMT IC50): 162.3

CN(C)CCOc1cccc(-c2ccc(F)cc2OCCc2cccnc2)c1 [Compound 26f, 2-((4′-fluoro-2′-(2-(pyridin-3-yl)ethoxy)-[1,1′-biphenyl]-3-yl)oxy)-N,N-dimethylethan-1-amine]
IC50 (HsNMT1; Table 2): > 40000 nM
IC50 (PvNMT; Table 2): 622 nM
SI** (PvNMT; Table 2, HsNMT IC50/PvNMT IC50): 62.3

Cc1n[nH]c(C)c1CCOc1cc(F)ccc1-c1cccc(OCCN(C)C)c1 [Compound 26i, 2-((2′-(2-(3,5-dimethyl-1H-pyrazol-4-yl)ethoxy)-4′-fluoro-[1,1′-biphenyl]-3-yl)oxy)-N,N-dimethylethan-1-amine]
IC50 (HsNMT1; Table 2): 13900 nM
IC50 (PvNMT; Table 2): 242 nM
SI** (PvNMT; Table 2, HsNMT IC50/PvNMT IC50): 57

Cc1nn(C)c(C)c1CCOc1ccc2ccccc2c1-c1ccnc(N2CCNCC2)c1 [Compound 30a, 1-(4-(2-(2-(1,3,5-trimethyl-1H-pyrazol-4-yl)ethoxy)naphthalen-1-yl)pyridin-2-yl)piperazine]
IC50 (P. vivax hypnozoites): 2.1 µM
IC50 (HsNMT1; Table 2): 24000 nM
IC50 [1]: 0.44 µM
IC50 (PvNMT; Table 2): 89 nM
SI** (PvNMT; Table 2, HsNMT IC50/PvNMT IC50): 269.8
selectivity index (SI) (PvNMT): 269
IC50 [2]: 2.9 to 4.3 µM
IC50 at 48 h [3]: > 20 µM

c1cncc(CCOc2ccc3ccccc3c2-c2ccnc(N3CCNCC3)c2)c1 [Compound 30c, 1-(4-(2-(2-(pyridin-3-yl)ethoxy)naphthalen-1-yl)pyridin-2-yl)piperazine]
inhibition at 20 µM (P. vivax hypnozoites; 20 μM): > 75%
IC50 (HsNMT1; Table 2): > 40000 nM
IC50 (PvNMT; Table 2): 248 nM
SI** (PvNMT; Table 2, HsNMT IC50/PvNMT IC50): 161

Cc1nn(C)c(C)c1NS(=O)(=O)c1c(Cl)cc(-c2ccnc(N3CCNCC3)c2)cc1Cl [DDD85646]
EC50 (P. falciparum): 0.069 µM

Cc1nn(C)c(C)c1CCOc1cc(F)ccc1-c1ccc2c(c1)c(CN(C)C)nn2C [IMP-1002]
IC50 (Plasmodium NMT; previously developed NMT inhibitors): 0.003 µM
selectivity over HsNMT1/2 (Plasmodium NMT): up to fourfold
EC50 (P. falciparum): 0.01 µM

CN[C@@H]1C[C@H]2O[C@@](C)([C@@H]1OC)n1c3ccccc3c3c4c(c5c6ccccc6n2c5c31)C(=O)NC4 [Staurosporine, reference compound]
effect on HepG2 cell viability (HepG2 cells): reduced the cell viability

Reference: patent US20260217686A1, “N-Myristoyltransferase Inhibitors And Methods Of Use” (Seattle Children's Hospital (d/b/a Seattle Children's …, priority 2022, published 2026)
